Test results as given in patent US10981932B2, “Macrocyclic indole derivatives” (Bayer Aktiengesellschaft, priority 2016, dated 2021).
Several values for one entry are separate records, joined by “and”; a condition that tells them apart may be missing. Identical values can stand only once. Counter-ions that a name gives are not always drawn. Like-named read-outs stand apart in the source and are kept apart here.

Experiments:
SUDHL5 [1] = assay: Induction of caspase-3/7 activity (Caspase-Glo 3/7), SUDHL5; assay type: cell-based; details: caspase-3/7 induction, SUDHL5 cells, 3 h treatment, median
Summary of the method: (§1)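 DLBCL lines SUDHL5 and SUDHL10 treated with compounds for 3 h at 37 °C; caspase-3/7 activity read by Caspase-Glo 3/7 luminescence. Medium-only background subtracted; EC50 fitted with bottom fixed at 1 and top fixed at the reference compound's maximal induction.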

SUDHL5 [2] = assay: Induction of cytotoxicity (CellTiter-Glo, 5 h), SUDHL5
SUDHL10 [3] = assay: Induction of caspase-3/7 activity (Caspase-Glo 3/7), SUDHL10; assay type: cell-based; details: caspase-3/7 induction, SUDHL10 cells, 3 h treatment, median
Summary of the method: as §1

MV-4-11 = assay: Anti-proliferative effect (CellTiter-Glo, 72 h), MV-4-11; assay type: cell-based; details: MV-4-11 cells, median, read-out: IC50 antiproliferation assay MV-4-11 [M] (median)
Summary of the method: (§2)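 Cells plated and incubated with compounds for 72 h at 37 °C, with a parallel day 0 reference plate for time-zero signal. Viability read by CellTiter-Glo luminescence after 10 min, measured identically on the day 0 and 72 h plates.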

SUDHL5 [4] = assay: Anti-proliferative effect (CellTiter-Glo, 72 h), SUDHL5; assay type: cell-based; details: SUDHL5 cells, antiproliferation, median, read-out: Antiproli SUDHL5 [M] (median)
Summary of the method: as §2

A2780 = assay: Anti-proliferative effect (CellTiter-Glo, 72 h), A2780; assay type: cell-based; details: A2780 cells, median, read-out: IC50 antiproliferation assay A2780 [M] (median)
Summary of the method: as §2

MCL-1 = MCL-1 (Homo sapiens, UniProt Q07820); assay: Protein-protein interaction assay MCL-1/Noxa BH3 peptide (MCL-1 assay), TR-FRET; assay type: binding; details: MBP-MCL-1 / Noxa BH3-derived peptide, median
Sequence of MCL-1 (Q07820 whole entry): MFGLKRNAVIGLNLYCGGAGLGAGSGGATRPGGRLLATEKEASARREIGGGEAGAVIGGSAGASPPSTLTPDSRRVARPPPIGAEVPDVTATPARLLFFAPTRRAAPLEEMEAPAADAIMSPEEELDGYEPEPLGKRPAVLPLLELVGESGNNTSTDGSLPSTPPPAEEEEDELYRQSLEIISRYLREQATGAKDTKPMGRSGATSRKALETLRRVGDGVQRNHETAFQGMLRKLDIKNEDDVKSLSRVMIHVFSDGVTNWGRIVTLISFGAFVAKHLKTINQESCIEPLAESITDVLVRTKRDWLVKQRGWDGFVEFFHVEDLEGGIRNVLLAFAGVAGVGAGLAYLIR
Summary of the method: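 IC50 came from a 4-parameter fit of the normalized 665/620 nm TR-FRET ratio (anti-MBP Eu-cryptate/streptavidin-XL665). Compounds (0.1 nM–20 μM, duplicates) were preincubated 10 min at 22 °C with 1 nM MBP-MCL-1 in pH 7 Tris/NaCl/KF buffer, then read after 1 h at 22 °C plus overnight at 4 °C.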

SUDHL10 [5] = assay: Induction of cytotoxicity (CellTiter-Glo, 5 h), SUDHL10
OPM2 = assay: Anti-proliferative effect (CellTiter-Glo, 72 h), OPM2; assay type: cell-based; details: OPM2 cells, median, read-out: IC50 antiproliferation assay OPM2 [M] (median)
Summary of the method: as §2

SUDHL10 [6] = assay: Anti-proliferative effect (CellTiter-Glo, 72 h), SUDHL10; assay type: cell-based; details: SUDHL10 cells, antiproliferation, median, read-out: Antiproli SUDHL10 [M] (median)
Summary of the method: as §2

[7] = read-out: Cytotox SUDHL5 [M] (median), SUDHL5 cells, cytotoxicity induction, CellTiter-Glo, 5 h incubation, median
[8] = Homo sapiens, SU-DHL-5, 72 h, 72 h incubation
[9] = read-out: Cytotox SUDHL10 [M] (median), SUDHL10 cells, cytotoxicity induction, CellTiter-Glo, 5 h incubation, median
[10] = Homo sapiens, SU-DHL-5, 5 h, read-out: Cytotox SUDHL5 [M] (median), SUDHL5 cells, cytotoxicity induction, CellTiter-Glo, 5 h, median
[11] = Homo sapiens, SU-DHL-5, 72 h, 72 h
[12] = Homo sapiens, SU-DHL10, 5 h, read-out: Cytotox SUDHL10 [M] (median), SUDHL10 cells, cytotoxicity induction, CellTiter-Glo, 5 h, median
[13] = Homo sapiens, SU-DHL10, 72 h, 72 h
[14] = Homo sapiens, SU-DHL10, 72 h, 72 h incubation

Row | EC50 (SUDHL5 [1]) [µM] | EC50 (SUDHL10 [3]) [µM] | IC50 (MV-4-11; Homo sapiens, MV4-11, 72 h) [M] | IC50 (A2780) | IC50 (MCL-1) [µM] | EC50 (SUDHL5 [1]; Homo sapiens, SU-DHL-5, 3 h) [µM] | EC50 (SUDHL10 [3]; Homo sapiens, SU-DHL10, 3 h) [µM] | IC50 (A2780; Homo sapiens, A2780, 72 h) [M] | IC50 (SUDHL5 [4]; 72 h incubation) [M] | IC50 (SUDHL10 [6]; 72 h incubation) [M] | SMILES | IC50 (SUDHL5 [2]; [7]) [M] | IC50 (SUDHL10 [5]; [9]) [M] | other results
1 | 2.64 | 5.26 | 2.58e-06 | 2.38e-05 M | 0.00119 |  |  |  |  |  | COCC(=O)N1CCN(c2ccc(OCc3nn(C)c4c3-c3cccc5c(CCCOc6cccc7ccccc67)c(C(=O)O)n(c35)CCCCOC4)cc2)CC1 (single isomer, unassigned; enantiomer 2) [Example 1-29, 3-({4-[4-(methoxyacetyl)piperazin-1-yl]phenoxy}methyl)-1-methyl-7-[3-(naphthalen-1-yloxy)propyl]-1,10,11,12,13,15-hexahydropyrazolo[4′,3′:9,10][1,6]oxazacycloundecino[8,7,6-hi]indole-8-carboxylic Acid (Enantiomer 2)] | 3.29e-06 | 6.87e-06 | IC50 (SUDHL5 [4]; [8]): 3.26e-06 M; IC50 (OPM2): 4.53e-06 M
2 | 26.4 | > 33 |  | > 3.3e-05 M | 0.0131 |  |  |  |  |  | Cc1nn(C)c2c1-c1cccc3c(CCCOc4cccc5ccccc45)c(C(=O)O)n(c13)CCCCOC2 (single isomer, unassigned; enantiomer 2) [Example 318, (−)-1,3-dimethyl-7-[3-(naphthalen-1-yloxy)propyl]-1,10,11,12,13,15-hexahydropyrazolo[4′,3′:9,10][1,6]oxazacycloundecino[8,7,6-hi]indole-8-carboxylic Acid (Enantiomer 2)] |  |  | IC50 (SUDHL5 [2]; read-out: Cytotox SUDHL5 [M] (median), SUDHL5 cells, cytotoxicity induction, CellTiter-Glo, 5 h, median): 1.62e-05 M; IC50 (MV-4-11): 3.28e-05 M; IC50 (SUDHL5 [4]; 72 h): 1.84e-05 M; IC50 (SUDHL10 [5]; read-out: Cytotox SUDHL10 [M] (median), SUDHL10 cells, cytotoxicity induction, CellTiter-Glo, 5 h, median): > 3.3e-05 M; IC50 (SUDHL10 [6]; 72 h): 2.72e-05 M
3 |  |  | 2.34e-05 |  | 0.0115 | 24.5 | > 33 | > 3.3e-05 |  |  | Cc1nn(C)c2c1-c1cccc3c(CCCOc4cccc5ccccc45)c(C(=O)O)n(c13)CCCCOC2 (single isomer, unassigned; enantiomer 1) [Example 317, (+)-1,3-dimethyl-7-[3-(naphthalen-1-yloxy)propyl]-1,10,11,12,13,15-hexahydropyrazolo[4′,3:9,10][1,6]oxazacycloundecino[8,7,6-hi]indole-8-carboxylic Acid (Enantiomer 1)] |  |  | IC50 (SUDHL5 [2]; [10]): 1.55e-05 M; IC50 (SUDHL5 [4]; [11]): 2.71e-05 M; IC50 (SUDHL10 [5]; [12]): > 3.3e-05 M; IC50 (SUDHL10 [6]; [13]): > 3.3e-05 M
4 | 2.09 | 7.16 | 2.58e-06 |  | 0.00273 |  |  | 2.55e-05 | 3.23e-06 |  | Cc1c2c(nn1C)CCCCCCn1c(C(=O)O)c(CCCOc3cccc4ccccc34)c3cccc-2c31 (single isomer, unassigned; enantiomer 1) [Example 191, 2,3-dimethyl-7-[3-(1-naphthyloxy)propyl]-10,11,12,13,14,15-hexahydro-2H-pyrazolo[4′,3′:4,5]azacycloundecino[3,2,1-hi]indole-8-carboxylic acid-N-ethylethanamine Salt (Enantiomer 1)] | 1.87e-06 | 5.01e-06 | IC50 (SUDHL10 [6]; [14]): 4.64e-06 M
5 | 7.34 | 19.9 | 5e-06 | 2.15e-05 M and > 3.3e-05 M | 0.00637 |  |  |  | 5.11e-06 | 3.63e-06 | Cn1nc(COc2cncnc2)c2c1COCCCCn1c(C(=O)O)c(CCCOc3cccc4ccccc34)c3cccc-2c31 (single isomer, unassigned) [Example 212, 1-methyl-7-[3-(naphthalen-1-yloxy)propyl]-3-[(pyrimidin-5-yloxy)methyl]-1,10,11,12,13,15-hexahydropyrazolo[4′,3′:9,10][1,6]oxazacycloundecino[8,7,6-hi]indole-8-carboxylic Acid] | 6.68e-06 | 2.02e-05 | 
6 | 1.61 | 7.45 | 2.8e-06 | 2.21e-05 M | 0.0021 |  |  |  | 2.19e-06 | 1.78e-06 | CCc1c2c(nn1CCN1CCOCC1)COCCCCn1c(C(=O)O)c(CCCOc3cccc4ccccc34)c3cccc-2c31 (single isomer, unassigned; enantiomer 2) [Example 203, 3-ethyl-2-[2-(morpholin-4-yl)ethyl]-7-[3-(naphthalen-1-yloxy)propyl]-2,10,11,12,13,15-hexahydropyrazolo[4′,3′:9,10][1,6]oxazacycloundecino[8,7,6-hi]indole-8-carboxylic Acid (Enantiomer 2)] | 1.32e-06 | 4.31e-06 | 
7 |  |  | 1.49e-05 |  | 0.00206 | 5.14 | 13 | 3.05e-05 |  |  | CCc1nn(C)c2c1-c1cccc3c(CCCOc4cccc5cc(F)ccc45)c(C(=O)O)n(c13)CCCCOC2 (racemic) [Example 287, (rac)-3-ethyl-7-{3-[(6-fluoronaphthalen-1-yl)oxy]propyl}-1-methyl-1,10,11,12,13,15-hexahydropyrazolo[4′,3′:9,10][1,6]oxazacycloundecino[8,7,6-hi]indole-8-carboxylic Acid] |  |  | IC50 (SUDHL5 [2]; [10]): 5.19e-06 M; IC50 (SUDHL5 [4]; [11]): 7.2e-06 M; IC50 (SUDHL10 [5]; [12]): 1.58e-05 M; IC50 (SUDHL10 [6]; [13]): 8.1e-06 M
8 | 25.7 | 29.2 | 1.33e-05 | 1.23e-05 M | 0.00958 |  |  |  | 1.13e-05 | 8.48e-06 | Cc1cc(OCCCc2c(C(=O)O)n3c4c(cccc24)-c2c(C)nn(C)c2COCCC3)cc(C)c1Cl (single isomer, unassigned; enantiomer 2) [Example 015, 1-[3-(4-chloro-3,5-dimethylphenoxy)propyl]-9,11-dimethyl-5,6,8,9-tetrahydro-4H-pyrazolo[4′,3′:8,9][1,5]oxazecino[7,6,5-hi]indole-2-carboxylic acid-N-ethylethanamine Salt (Enantiomer 2)] | 2.1e-05 | 2.87e-05 | 
9 | 0.803 | 2.9 | 1.52e-06 |  | 0.0016 |  |  | > 3.3e-05 | 1.34e-06 | 1.2e-06 | COCc1nn(C)c2c1-c1cccc3c(CCCOc4cccc5ccccc45)c(C(=O)O)n(c13)CCCCN(C)C2 (single isomer, unassigned; enantiomer 1) [Example 184, 3-(methoxymethyl)-1,14-dimethyl-7-[3-(naphthalen-1-yloxy)propyl]-10,11,12,13,14,15-hexahydro-1H-pyrazolo[3′,4′:8,9][1,6]diazacycloundecino[10,11,1-hi]indole-8-carboxylic acid-N-ethylethanamine Salt (Enantiomer 1)] | 8.82e-07 | 2.94e-06 | 
10 |  |  | 8.62e-06 |  | 0.00221 | 1.84 | 3.73 | 1.52e-05 |  |  | Cc1c2c(nn1CCN1CCOCC1)COCCCCn1c(C(=O)O)c(CCCOc3cccc4cc(F)ccc34)c3cccc-2c31 (racemic) [Example 284, (rac)-7-{3-[(6-fluoronaphthalen-1-yl)oxy]propy}-3-methyl-2-[2-(morpholin-4-yl)ethyl]-2,10,11,12,13,15-hexahydropyrazolo[4′,3′:9,10][1,6]oxazacycloundecino[8,7,6-hi]indole-8-carboxylic Acid] |  |  | IC50 (SUDHL5 [2]; Homo sapiens, SU-DHL-5, 5 h, read-out: Cytotox SUDHL5 [M] (median), SUDHL5 cells, cytotoxicity induction, CellTiter-Glo, 5 h incubation, median): 2.46e-06 M; IC50 (SUDHL5 [4]; [8]): 2.82e-06 M; IC50 (SUDHL10 [5]; Homo sapiens, SU-DHL10, 5 h, read-out: Cytotox SUDHL10 [M] (median), SUDHL10 cells, cytotoxicity induction, CellTiter-Glo, 5 h incubation, median): 4.25e-06 M; IC50 (SUDHL10 [6]; [14]): 7.01e-06 M
